In patent US20210253572A1, “IMIDAZO[1,2-B]PYRIDAZINES AS TRK INHIBITORS” (BenevolentAl Bio Limited, priority 2018, published 2021):

Columns and labels:
Format in all cases: biochemical
TrkC = target: T1, TrkC (Homo sapiens, UniProt Q16288); assay: HTRF KinEASE kinase assay, recombinant Human TRK enzyme, TrkC (NTRK3); conditions: NTRK3 10 nM, read-out: TrkC Enz
T1 construct: purchased Invitrogen
Protocol: (§1) A suitable assay for determining the Trk inhibition activity of a compound is detailed herein below.
(§2) To determine the IC50 of small molecule compounds for the Human TRK receptors, HTRF® KinEASE™ kinase kits from Cisbio were used. Assays were carried out in low volume, black 384-well plates.
(§3) Recombinant Human TRK enzymes (Invitrogen) were incubated in the presence or absence of the compound (11-point dose response with FAC as 10 μM) for 30 minutes at 23° C. Kinase reaction was started by addition of ATP to a mixture containing the enzyme (NTRK1-4 nM, NTRK2-1 nM, NTRK3-10 nM) and substrate (1 μM). Kinase reaction was allowed to carry on for 10 to 45 minutes at 23° C. after which it was stopped by addition of the detection mix (supplied by vendor) containing EDTA, TK-Ab-labelled with Eu^3+-cryptate (1:200 dilutions) and Streptavidin-XL665 (250 nM). Assay plates were incubated in this detection mix for 60 minutes at 23° C. The resulting TR-FRET signal, calculated as the fluorescence ratio at 665/620 nm, was read on an Envision and was proportional to the level of phosphorylation of the peptide in the presence or absence of the compound. The uniformity of the plates were assured with Z′ value [1−{3*(SDHPE+SDZPE)/(ZPE−HPE)}]. The percent (%) effect i.e. Inhibition of compound was calculated in comparison to the signal in the positive (HPE) and negative control (ZPE) wells within each assay plate. The endpoint value % Inhibition for the Standard compound was evaluated in each experiment as a quality control measure. IC50 was determined by plotting compound inhibition at respective dose in Graphpad prism5 using four parameter logistic curve fit.

TrkB = target: T2, TrkB (Homo sapiens, UniProt Q16620); assay: HTRF KinEASE kinase assay, recombinant Human TRK enzyme, TrkB (NTRK2); conditions: NTRK2 1 nM, read-out: TrkB Enz
T2 construct: purchased Invitrogen
Protocol: as §1, §2, §3

TrkA = target: T3, TrkA (Homo sapiens, UniProt P04629); assay: HTRF KinEASE kinase assay, recombinant Human TRK enzyme, TrkA (NTRK1); conditions: NTRK1 4 nM, read-out: TrkA Enz
T3 construct: purchased Invitrogen
Protocol: as §1, §2, §3

T2 sequence (Q16620 32-822): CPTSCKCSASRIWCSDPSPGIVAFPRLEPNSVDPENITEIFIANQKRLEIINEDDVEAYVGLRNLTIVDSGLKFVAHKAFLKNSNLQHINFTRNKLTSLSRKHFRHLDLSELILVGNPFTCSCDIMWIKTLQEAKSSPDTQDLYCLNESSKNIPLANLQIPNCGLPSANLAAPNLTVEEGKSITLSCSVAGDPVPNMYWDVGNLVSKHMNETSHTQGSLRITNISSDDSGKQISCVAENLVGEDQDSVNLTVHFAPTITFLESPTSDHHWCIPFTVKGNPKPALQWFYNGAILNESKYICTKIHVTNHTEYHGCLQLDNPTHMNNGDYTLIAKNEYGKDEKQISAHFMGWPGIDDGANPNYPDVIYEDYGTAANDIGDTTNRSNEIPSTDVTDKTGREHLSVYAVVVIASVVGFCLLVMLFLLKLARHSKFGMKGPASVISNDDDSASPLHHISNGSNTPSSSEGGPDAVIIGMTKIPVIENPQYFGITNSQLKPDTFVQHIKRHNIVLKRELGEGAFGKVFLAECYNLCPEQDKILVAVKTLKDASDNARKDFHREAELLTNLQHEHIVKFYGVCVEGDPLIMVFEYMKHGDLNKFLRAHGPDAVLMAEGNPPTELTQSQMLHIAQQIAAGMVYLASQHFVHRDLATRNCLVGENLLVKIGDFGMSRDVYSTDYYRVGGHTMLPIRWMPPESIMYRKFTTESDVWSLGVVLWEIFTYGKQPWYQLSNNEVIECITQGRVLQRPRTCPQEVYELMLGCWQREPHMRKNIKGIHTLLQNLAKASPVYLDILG
T3 sequence (P04629 33-796): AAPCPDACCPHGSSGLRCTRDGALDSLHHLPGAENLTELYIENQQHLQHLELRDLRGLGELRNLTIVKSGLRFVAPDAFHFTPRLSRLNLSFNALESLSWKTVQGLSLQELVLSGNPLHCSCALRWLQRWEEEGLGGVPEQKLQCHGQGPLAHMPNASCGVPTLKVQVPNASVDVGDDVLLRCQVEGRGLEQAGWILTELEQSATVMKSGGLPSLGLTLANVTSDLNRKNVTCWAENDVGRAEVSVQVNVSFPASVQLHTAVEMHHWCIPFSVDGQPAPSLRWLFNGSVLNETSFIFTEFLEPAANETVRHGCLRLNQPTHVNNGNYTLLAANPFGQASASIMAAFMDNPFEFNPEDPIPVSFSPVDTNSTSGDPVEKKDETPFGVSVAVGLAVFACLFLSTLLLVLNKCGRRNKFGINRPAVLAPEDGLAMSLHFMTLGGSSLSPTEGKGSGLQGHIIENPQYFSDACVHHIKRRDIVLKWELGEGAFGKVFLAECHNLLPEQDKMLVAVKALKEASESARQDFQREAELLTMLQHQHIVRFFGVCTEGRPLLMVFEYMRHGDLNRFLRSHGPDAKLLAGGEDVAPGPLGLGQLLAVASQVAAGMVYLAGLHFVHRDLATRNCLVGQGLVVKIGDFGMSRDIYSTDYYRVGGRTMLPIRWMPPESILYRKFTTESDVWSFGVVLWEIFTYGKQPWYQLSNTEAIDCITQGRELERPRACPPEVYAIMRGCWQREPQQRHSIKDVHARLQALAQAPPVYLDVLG
T1 sequence (Q16288 32-839): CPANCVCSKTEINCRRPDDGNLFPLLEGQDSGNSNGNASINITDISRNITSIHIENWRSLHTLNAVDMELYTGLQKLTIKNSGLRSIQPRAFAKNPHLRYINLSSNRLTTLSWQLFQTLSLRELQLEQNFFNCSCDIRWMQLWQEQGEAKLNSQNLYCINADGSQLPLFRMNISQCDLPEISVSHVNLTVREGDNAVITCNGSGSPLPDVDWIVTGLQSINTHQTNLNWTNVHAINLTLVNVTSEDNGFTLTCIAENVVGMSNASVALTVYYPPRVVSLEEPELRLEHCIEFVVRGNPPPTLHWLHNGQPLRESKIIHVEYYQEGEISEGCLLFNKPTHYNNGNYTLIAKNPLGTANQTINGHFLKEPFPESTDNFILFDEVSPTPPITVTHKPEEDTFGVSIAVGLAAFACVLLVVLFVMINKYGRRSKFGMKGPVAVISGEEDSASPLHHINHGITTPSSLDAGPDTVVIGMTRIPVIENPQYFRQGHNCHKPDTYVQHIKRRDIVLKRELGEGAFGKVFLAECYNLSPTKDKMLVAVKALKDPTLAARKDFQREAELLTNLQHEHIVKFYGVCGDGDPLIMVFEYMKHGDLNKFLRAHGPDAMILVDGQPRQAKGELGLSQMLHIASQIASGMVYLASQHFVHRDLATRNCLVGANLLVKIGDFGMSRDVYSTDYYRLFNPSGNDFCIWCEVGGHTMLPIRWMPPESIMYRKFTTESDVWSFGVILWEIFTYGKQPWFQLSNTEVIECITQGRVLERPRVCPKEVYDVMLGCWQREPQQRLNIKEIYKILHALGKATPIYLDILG

IC50 (TrkC) [nM]	IC50 (TrkB) [nM]	IC50 (TrkA) [nM]	Compound
2.99	3.04	2.46	CSc1cc(F)cc([C@H]2C[C@H](F)CN2c2ccc3ncc(C(=O)NC4CN(Cc5ccc(F)c(O)c5)C4)n3n2)c1 [Example 19, 6-[(2R,4S)-4-fluoro-2-[3-fluoro-5-(methylsulfanyl)phenyl]pyrrolidin-1-yl]-N-{1-[(4-fluoro-3-hydroxyphenyl)methyl]azetidin-3-yl}imidazo[1,2-b]pyridazine-3-carboxamide]
3.72	3.76	2.69	CSc1cc(F)cc([C@H]2C[C@H](F)CN2c2ccc3ncc(C(=O)NC4CN(Cc5cccc(O)c5)C4)n3n2)c1 [Example 20, 6-[(2R,4S)-4-fluoro-2-[3-fluoro-5-(methylsulfanyl)phenyl]pyrrolidin-1-yl]-N-{1-[(3-hydroxyphenyl)methyl]azetidin-3-yl}imidazo[1,2-b]pyridazine-3-carboxamide]
1.97	1.5	1.48	CSc1cc(F)cc([C@H]2C[C@H](F)CN2c2ccc3ncc(C(=O)NC4CCN(Cc5ccc(F)c(O)c5)CC4)n3n2)c1 [Example 21, 6-[(2R,4S)-4-fluoro-2-[3-fluoro-5-(methylsulfanyl)phenyl]pyrrolidin-1-yl]-N-{1-[(4-fluoro-3-hydroxyphenyl)methyl]piperidin-4-yl}imidazo[1,2-b]pyridazine-3-carboxamide]
2.13	2.01	1.4	CSc1cc(F)cc([C@H]2C[C@H](F)CN2c2ccc3ncc(C(=O)NC4CCN(Cc5cccc(O)c5)CC4)n3n2)c1 [Example 22, 6-[(2R,4S)-4-fluoro-2-[3-fluoro-5-(methylsulfanyl)phenyl]pyrrolidin-1-yl]-N-{1-[(3-hydroxyphenyl)methyl]piperidin-4-yl}imidazo[1,2-b]pyridazine-3-carboxamide]
6.85	10.3	2.37	CO[C@H]1CN(Cc2ccc(F)c(O)c2)C[C@@H]1NC(=O)c1cnc2ccc(N3C[C@@H](F)C[C@@H]3c3cc(F)cc(SC)c3)nn12 [Example 23, 6-[(2R,4S)-4-fluoro-2-[3-fluoro-5-(methylsulfanyl)phenyl]pyrrolidin-1-yl]-N-[(3S,4S)-1-[(4-fluoro-3-hydroxyphenyl)methyl]-4-methoxypyrrolidin-3-yl]imidazo[1,2-b]pyridazine-3-carboxamide]
2.97	1.85	1.87	CSc1cc(F)cc([C@H]2C[C@H](F)CN2c2ccc3ncc(C(=O)NCc4ccc(F)c(O)c4)n3n2)c1 [Example 26, 6-[(2R,4S)-4-fluoro-2-[3-fluoro-5-(methylsulfanyl)phenyl]pyrrolidin-1-yl]-N-[(4-fluoro-3-hydroxyphenyl)methyl]imidazo[1,2-b]pyridazine-3-carboxamide]
1.87	1.01	1.34	CSc1cc(F)cc([C@H]2C[C@H](F)CN2c2ccc3ncc(C(=O)N[C@H]4CCN(C(=O)c5cccc(O)c5)C4)n3n2)c1 [Example 27, 6-[(2R,4S)-4-fluoro-2-[3-fluoro-5-(methylsulfanyl)phenyl]pyrrolidin-1-yl]-N-[(3S)-1-(3-hydroxybenzoyl)pyrrolidin-3-yl]imidazo[1,2-b]pyridazine-3-carboxamide]
4.88	5.67	4.63	CSc1cc(F)cc([C@H]2C[C@H](F)CN2c2ccc3ncc(C(=O)N[C@H]4CCN(Cc5cccc(OC(C)=O)c5)C4)n3n2)c1 [Example 28, 3-{[(3S)-3-{6-[(2R,4S)-4-fluoro-2-[3-fluoro-5-(methylsulfanyl)phenyl]pyrrolidin-1-yl]imidazo[1,2-b]pyridazine-3-amido}pyrrolidin-1-yl]methyl}phenyl Acetate]
3.98	5.34	5.84	CSc1cc(F)cc([C@H]2C[C@H](F)CN2c2ccc3ncc(C(=O)N[C@H]4CCN(Cc5cccc(C(=O)O)c5)C4)n3n2)c1 [Example 29, 3-{[(3S)-3-{6-[(2R,4S)-4-fluoro-2-[3-fluoro-5-(methylsulfanyl)phenyl]pyrrolidin-1-yl]imidazo[1,2-b]pyridazine-3-amido}pyrrolidin-1-yl]methyl}benzoic Acid]
22.4	14.9	22.4	CCCCOC(=O)c1cccc(CN2CC[C@H](NC(=O)c3cnc4ccc(N5C[C@@H](F)C[C@@H]5c5cc(F)cc(SC)c5)nn34)C2)c1 [Example 30, Butyl 3-{[(3S)-3-{6-[(2R,4S)-4-fluoro-2-[3-fluoro-5-(methylsulfanyl)phenyl]pyrrolidin-1-yl]imidazo[1,2-b]pyridazine-3-amido}pyrrolidin-1-yl]methyl}benzoate]
1.38	0.86	1.38	CSc1cc(F)cc([C@H]2C[C@H](F)CN2c2ccn3ncc(C(=O)NC4CCN(Cc5cccc(O)c5)CC4)c3n2)c1 [Example 31, 5-[(2R,4S)-4-fluoro-2-[3-fluoro-5-(methylsulfanyl)phenyl]pyrrolidin-1-yl]-N-{1-[(3-hydroxyphenyl)methyl]piperidin-4-yl}pyrazolo[1,5-a]pyrimidine-3-carboxamide]
